One test addresses T1, papain (Carica papaya, UniProt P00784).
T1 sequence (P00784 134-345): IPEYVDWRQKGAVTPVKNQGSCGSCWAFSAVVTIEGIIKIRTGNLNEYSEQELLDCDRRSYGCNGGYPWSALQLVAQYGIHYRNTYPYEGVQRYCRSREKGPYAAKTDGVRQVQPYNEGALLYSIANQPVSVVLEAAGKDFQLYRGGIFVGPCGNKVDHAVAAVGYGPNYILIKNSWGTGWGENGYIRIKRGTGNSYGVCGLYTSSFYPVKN
The experiment in a line: In vitro assay procedure for papain (inhibition). The test is classed as biochemical. The following applies: pH 6.5, 10 min incubation at room temperature, substrate N-CBZ-Pro-Phe-Arg-pNA; read-out: IC50 Papain. On the procedure: To a 170 μl of enzyme-buffer mixture (enzyme: papain, diluted to give 30 mOD/min, buffer: 0.2 M potassium phosphate, 1.0 mM EDTA, 5 mM L-Cysteine, pH 6.5) a 10 μL of inhibitor (dissolved in DMSO) was added. After 10 min of incubation at room temperature, a 20 μl of 10 mM substrate (N-CBZ-Pro-Phe-Arg-pNA, dissolved in DMSO) was added to initiate reaction. Reading is followed up for 3 min at the Thermomax plate reader (absorbance at 405 nm)
A plot of percentage of inhibition vs inhibitor concentration is obtained, and IC50 is determined using a linear regression calculations (concentration of inhibitor which will give 50% inhibition).

Another test has as its target cathepsin B (Rattus norvegicus, UniProt P00787). The experiment in a line: In vitro assay procedure for cathepsin B (inhibition). The note with it: rat cathepsin B, pH 5.1, 10 min incubation at room temperature, substrate N-CBZ-Phe-Arg-AMC; read-out: IC50 Cathepsin B. The class given is biochemical.

pIC50: −log10 of the molar value.

Sequence of cathepsin B (P00787 80-339): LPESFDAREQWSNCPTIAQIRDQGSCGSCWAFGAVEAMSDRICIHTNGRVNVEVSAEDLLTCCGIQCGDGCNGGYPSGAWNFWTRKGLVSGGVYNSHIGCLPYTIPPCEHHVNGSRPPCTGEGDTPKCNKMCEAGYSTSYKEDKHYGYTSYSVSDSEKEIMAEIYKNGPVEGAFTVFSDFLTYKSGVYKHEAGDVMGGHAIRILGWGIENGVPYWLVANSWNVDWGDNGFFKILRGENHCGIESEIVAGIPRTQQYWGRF
Procedure for cathepsin B: The compounds of formula I were tested for inhibition of cathepsin B using the known method (A. J. Barret et al., Biochem. J. 1982, 201, 189-198). […] After 10 min of incubation at room temperature, a 20 μl of 5 mM substrate (N-CBZ-Phe-Arg-AMC, dissolved in DMSO) was added to initiate reaction. Reading is followed up for 10 min at the fluoroscan reader (excitation at 380 nm, emission at 460 nm).

On to `O=COCCCCCC(=O)NCC1CN2C(=O)CC2O1` (stereo not drawn) [Example 38], for which the results for the negative-log IC50 (pIC50) on papain and at cathepsin B were 5.66 and 5.46, respectively.

As to `NCC1CN2C(=O)CC2O1` (stereo not drawn) [Example 39], the pIC50 at papain and at cathepsin B was 5.26 each time.

Regarding `NC(CC(=O)O)C(=O)NCC(=O)NCC1CN2C(=O)CC2O1` (stereo not drawn) [Example 40], the pIC50 (in general, the IC50 on a negative log10 scale, so that one unit is a factor of ten) at papain is 5.08; at cathepsin B it was 4.80.

Consider `CC(=O)NCCCCC(NC(C)=O)C(=O)OCC1CN2C(=O)CC2O1` (stereo not drawn) [Example 43], for which the pIC50 on papain was 5.75; at cathepsin B, less than 4.15.

Turning to `CC(=O)OCC1CN2C(=O)CC2O1` (stereo not drawn) [Example 44], the negative-log IC50 (pIC50) at papain was 6.68; at cathepsin B, 5.96.

For the compound `O=C(CO)NCC1CN2C(=O)CC2O1` (stereo not drawn) [Example 45], the pIC50 on papain was 5.77; at cathepsin B, 5.30.

In the case of `O=C(OCC1CN2C(=O)CC2O1)c1ccc2c(c1)C(=O)c1ccccc1C2=O` (stereo not drawn) [Example 46], the negative logarithm of the IC50 (pIC50) was 7.68 on papain and 6.28 on cathepsin B.

On to `COc1ccc(C(=O)NCC2CN3C(=O)CC3O2)cc1OC` (stereo not drawn) [Example 47], for which the results for the negative-log IC50 (pIC50) at papain and at cathepsin B were 6.89 and 5.06, respectively.

As to `O=C1CC2OC(CSc3ccccc3)CN12` (stereo not drawn) [Example 48], the negative-log IC50 (pIC50) is 6.07 at papain and 6.38 on cathepsin B.

`NC(Cc1ccccc1)C(=O)NCC1CN2C(=O)CC2O1` (stereo not drawn) [Example 49]: the pIC50 at papain is 6.21; on cathepsin B it was 5.51.

Take `O=C(OCC1CN2C(=O)CC2O1)c1ccc(O)c(O)c1` (stereo not drawn) [Example 50]: the results for the negative logarithm of the IC50 (pIC50) at papain and on cathepsin B were 5.60 and 6.34, respectively.

As to `COc1ccc(C(=O)OCC2CN3C(=O)CC3O2)cc1OC` (stereo not drawn) [Example 51], the negative-log IC50 (pIC50) on papain was 6.89; on cathepsin B it was 5.48.

For `COc1cc(C(=O)OCC2CN3C(=O)CC3O2)cc(OC)c1O` (stereo not drawn) [Example 52], the figures for the negative logarithm of the IC50 (pIC50) at papain and at cathepsin B were 6.21 and 5.51, respectively.

Take `Nc1ccc(C(=O)OCC2CN3C(=O)CC3O2)cc1` (stereo not drawn) [Example 53]: the negative-log IC50 (pIC50) is 5.62 at papain and 5.42 at cathepsin B.

For `O=C(OCC1CN2C(=O)CC2O1)c1cc(F)c(F)cc1F` (stereo not drawn) [Example 54], the values for the pIC50 on papain and at cathepsin B were 6.18 and 5.08, respectively.

In the case of `N#Cc1ccc(C(=O)OCC2CN3C(=O)CC3O2)cc1` (stereo not drawn) [Example 55], the results for the negative logarithm of the IC50 (pIC50) at papain and on cathepsin B were 6.13 and 5.43, respectively.

On to `Cc1ccc(S(=O)(=O)NCC2CN3C(=O)CC3O2)cc1` (stereo not drawn) [Example 56], for which the negative logarithm of the IC50 (pIC50) is 5.75 at papain and 6.17 at cathepsin B.

Turning to `O=C1CC2OC(CNS(=O)(=O)c3ccc(Cl)cc3)CN12` (stereo not drawn) [Example 57], the pIC50 on papain and on cathepsin B was 6.20 throughout.

`O=C(NCC1CN2C(=O)CC2O1)c1ccccc1` (stereo not drawn) [Example 58]: the pIC50 at papain is 6.09; at cathepsin B, 5.39.

For the compound `COc1ccc(S(=O)(=O)NCC2CN3C(=O)CC3O2)cc1` (stereo not drawn) [Example 59], the values for the negative logarithm of the IC50 (pIC50) on papain and on cathepsin B were 5.49 and 6.19, respectively.

Consider `O=C(OCC1CN2C(=O)CC2O1)c1ccccc1` (stereo not drawn) [Example 60], for which the negative logarithm of the IC50 (pIC50) at papain and on cathepsin B was 5.40 each time.

Turning to `O=C1CC2OC(CS(=O)(=O)c3ccccc3)CN12` (stereo not drawn) [Example 61], the pIC50 on papain and on cathepsin B was 5.80 throughout.

As for `O=C1CC2OC(C[S+]([O-])Cc3ccccc3)CN12` (stereo not drawn) [Example 62], the pIC50 on papain is 6.12; on cathepsin B, 5.06.

Turning to `O=C(O)COc1ccc(C(=O)OCC2CN3C(=O)CC3O2)cc1` (stereo not drawn) [Example 63], the negative logarithm of the IC50 (pIC50) on papain is 5.54; on cathepsin B it was 5.70.

Consider `O=C(O)c1ccccc1C(=O)OCC1CN2C(=O)CC2O1` (stereo not drawn) [Example 64], for which the negative logarithm of the IC50 (pIC50) at papain is 4.80; at cathepsin B it was 5.16.

For `COc1ccc(C(=O)OCC2CN3C(=O)CC3O2)cc1` (stereo not drawn) [Example 65], the pIC50 on papain is 5.70; at cathepsin B it was 5.05.

Take `O=C(OCC1CN2C(=O)CC2O1)c1ccc(F)cc1` (stereo not drawn) [Example 66]: the results for the pIC50 at papain and at cathepsin B were 5.62 and 5.42, respectively.

As for `O=C(OCC1CN2C(=O)CC2O1)c1ccc(O)cc1` (stereo not drawn) [Example 67], the negative-log IC50 (pIC50) is 5.62 on papain and 5.42 on cathepsin B.

On to `COc1ccc(C(=O)NCC2CN3C(=O)CC3O2)cc1` (stereo not drawn) [Example 68], for which the figures for the pIC50 at papain and on cathepsin B were 6.14 and 5.44, respectively.

With `O=C(NC(CO)C(=O)OCC1CN2C(=O)CC2O1)OCc1ccccc1` (stereo not drawn) [Example 69], the pIC50 at papain was 5.82; at cathepsin B it was 5.57.

Take `O=C(CNC(=O)OCc1ccccc1)NCC(=O)OCC1CN2C(=O)CC2O1` (stereo not drawn) [Example 70]: the pIC50 at papain was 6.46; at cathepsin B, 5.17.

Turning to `O=C(NC(c1ccccc1)C(O)C(=O)OCC1CN2C(=O)CC2O1)c1ccccc1` (stereo not drawn) [Example 71], the negative logarithm of the IC50 (pIC50) on papain and at cathepsin B was 6.62 in each case.

With `O=C1CC(OCC2CN3C(=O)CC3O2)N1` (stereo not drawn) [Example 73], the negative-log IC50 (pIC50) is 5.62 on papain and 5.33 at cathepsin B.

As to `O=C(CCCCCCn1ccnn1)NCC1CN2C(=O)CC2O1` (stereo not drawn) [Example 74], the negative logarithm of the IC50 (pIC50) is 5.48 on papain and 5.19 at cathepsin B.

With `O=C(NCC1CN2C(=O)CC2O1)C1CCCCC1` (stereo not drawn) [Example 75], the negative logarithm of the IC50 (pIC50) is 5.40 at papain and 6.44 on cathepsin B.

Take `O=C(O)C1CCCCC1C(=O)OCC1CN2C(=O)CC2O1` (stereo not drawn) [Example 76]: the negative-log IC50 (pIC50) on papain was 4.96; at cathepsin B it was 6.47.
